Laboratory results from patent US20260022143A1, “Cyclic Peptide Inhibitors of IL-23” (JANSSEN PHARMACEUTICA NV, priority 2022, published 2026).
Starred links: 1 amine or outer side, 2 acyl side, 3 side chain; linkers in the order of their positions; H or OH if unused. Positions of bridges follow the written chain, without caps; N, C: chain ends. Non-standard residues stand in square brackets, D forms with d. Residues, ends and D or L forms follow the SMILES beside them. Groups on a side chain read outwards from the residue. *: point of attachment. Me3N+(CH2)2O(CH2)2O(CH2)2CO = C[N+](C)(C)CCOCCOCCC(=O)*; CH2CH2OCH2CH2OCH2CH2NMe3+ = C[N+](C)(C)CCOCCOCC*; Trp(7-Me) = Cc1cccc2c(C[C@H](N)C(=O)O)c[nH]c12; Dab(NMeAc) = CC(=O)N(C)CC[C@H](N)C(=O)O; X1 = CN(CC[C@H](N[*:1])C(=O)[*:2])[*:3]; γGlu = O=C(O)[C@H](CCC(=O)[*:2])N[*:1]; 2Nal = N[C@@H](Cc1ccc2ccccc2c1)C(=O)O; AEF = NCCOc1ccc(C[C@H](N)C(=O)O)cc1; X77 = COCCN1CC[N+]2(CC1)CCN(CC*)CC2; 3Pal = N[C@@H](Cc1cccnc1)C(=O)O; Myristoyl = CCCCCCCCCCCCCC(=O)*; Lys(Me) = CNCCCC[C@H](N)C(=O)O; Pen = CC(C)(S)[C@H](N)C(=O)O; X8 = C[N+](C)(C)CCCCCCCC*; Thp = NC1(C(=O)O)CCOCC1; X17 = C[N+]1(CC*)CCOCC1; X3 = C[N+](C)(C)CCCCC*; AEEA = NCCOCCOCC(=O)O; Sar = CNCC(=O)O

Test: Exposed Polar Surface Area (EPSA)
Assay type: physicochemical
Conditions: SFC on Chirex 3014 column; sample 1 mM DMSO stock
Procedure, shortened: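 SFC retention on a Chirex 3014 (S-valine/(R)-1-(α-naphthyl)ethylamine) column at 35 °C, 4 mL/min, 14 MPa outlet, 5–60% methanol/20 mM ammonium formate gradient in CO2. Retention times converted to EPSA (Å²) via linear calibration with 8 standards; samples from 1 mM DMSO stock, run in duplicate.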

EPSA [Å^2]	Compound
150.1	CC(=O)N(C)CCCC[C@@H]1NC(=O)[C@H](Cc2c[nH]c3c(C)cccc23)NC(=O)[C@H]([C@@H](C)O)NC(=O)[C@H](CC(=O)N(C)C)NC(=O)[C@@H](NC(=O)CCOCCOCC[N+](C)(C)C)C(C)(C)SSC(C)(C)[C@@H](C(=O)N[C@@H](Cc2ccc(OCCN)cc2)C(=O)N[C@@H](Cc2ccc3ccccc3c2)C(=O)NC2(C(=O)N[C@@H](CCN(C)C(C)=O)C(=O)N[C@@H](CC(N)=O)C(=O)N[C@@H](Cc3cccnc3)C(=O)N(C)CC(=O)N(C)C)CCC(F)(F)C2)NC1=O (single isomer, unassigned) [compound 180, cPEG3aCO-Pen(3)-N(N(Me)2)-T-7MeW-K(NMeAc)-Pen(3)-AEF-2Nal-diFCpx-Dab(NMeAc)-N-3Pya-Sar-CON(Me)2]

Same assay, conditions: SFC on Chirex 3014 column; sample 1 mM DMSO stock; read-out: EPSA

Compound	EPSA [A^2]
CC(=O)N(C)CC[C@H](NC(=O)C1(NC(=O)[C@H](Cc2ccc3ccccc3c2)NC(=O)[C@H](Cc2ccc(OCCN)cc2)NC(=O)[C@H]2NC(=O)[C@H](CCN(C)C(=O)CCOCCOCC[N+](C)(C)C)NC(=O)[C@H](Cc3c[nH]c4c(C)cccc34)NC(=O)[C@H]([C@@H](C)O)NC(=O)[C@H](CC(=O)N(C)C)NC(=O)[C@@H](NC(=O)CCOCCOCC[N+](C)(C)C)C(C)(C)SSC2(C)C)CCOCC1)C(=O)N[C@@H](CC(N)=O)C(=O)N[C@@H](Cc1cccnc1)C(=O)N(C)CC(=O)N(C)C [compound 196, cPEG3aCO-Pen(3)-N(N(Me)2)-T-7MeW-Dab(NMecPEG3a)-Pen(3)-AEF-2Nal-THP-Dab(NMeAc)-N-3Pya-Sar-CON(Me)2] ({Me3N+(CH2)2O(CH2)2O(CH2)2CO}-[Pen]D(NMe2)T[Trp(7-Me)][X1](Me3N+(CH2)2O(CH2)2O(CH2)2CO)[Pen][AEF][2Nal][Thp][Dab(NMeAc)]N[3Pal][Sar]-NMe2; disulfide 1-6 (inferred))	149
CC(=O)NCCCC[C@@H]1NC(=O)[C@H](Cc2c[nH]c3c(C)cccc23)NC(=O)[C@H]([C@@H](C)O)NC(=O)[C@H](CC(=O)N(C)C)NC(=O)[C@@H](NC(=O)CCOCCOCC[N+](C)(C)C)C(C)(C)SSC(C)(C)[C@@H](C(=O)N[C@@H](Cc2ccc(OCCOCCOCC[N+](C)(C)C)cc2)C(=O)N[C@@H](Cc2ccc3ccccc3c2)C(=O)NC2(C(=O)N[C@@H](CCCCN(C)C(C)=O)C(=O)N[C@@H](CC(N)=O)C(=O)N[C@@H](Cc3cccnc3)C(=O)N(C)CC(=O)N(C)C)CCOCC2)NC1=O [compound 243, cPEG3aCO-Pen(3)-N(N(Me)2)-T-7MeW-K(Ac)-Pen(3)-APEG3F-2Nal-THP-K(NMeAc)-N-3Pya-Sar-CON(Me)2] ({Me3N+(CH2)2O(CH2)2O(CH2)2CO}-[Pen]D(NMe2)T[Trp(7-Me)]K(Ac)[Pen]Y(CH2CH2OCH2CH2OCH2CH2NMe3+)[2Nal][Thp][Lys(Me)](Ac)N[3Pal][Sar]-NMe2; disulfide 1-6)	142
COCCN1CC[N+]2(CC1)CCN(CCOc1ccc(C[C@H](NC(=O)[C@H]3NC(=O)[C@H](CCCCN(C)C(C)=O)NC(=O)[C@H](Cc4c[nH]c5c(C)cccc45)NC(=O)[C@H]([C@@H](C)O)NC(=O)[C@H](CC(=O)N(C)C)NC(=O)[C@@H](NC(=O)CCOCCOCC[N+](C)(C)C)C(C)(C)SSC3(C)C)C(=O)N[C@@H](Cc3ccc4ccccc4c3)C(=O)NC3(C(=O)N[C@@H](CCCCN(C)C(C)=O)C(=O)N[C@@H](CC(N)=O)C(=O)N[C@@H](Cc4cccnc4)C(=O)N(C)CC(=O)N(C)C)CCOCC3)cc1)CC2 [compound 262, cPEG3aCO-Pen(3)-N(N(Me)2)-T-7MeW-K(NMeAc)-Pen(3)-MTASF-2Nal-THP-K(NMeAc)-N-3Pya-Sar-CON(Me)2] ({Me3N+(CH2)2O(CH2)2O(CH2)2CO}-[Pen]D(NMe2)T[Trp(7-Me)][Lys(Me)](Ac)[Pen]Y(X77)[2Nal][Thp][Lys(Me)](Ac)N[3Pal][Sar]-NMe2; disulfide 1-6)	145
CC(=O)N[C@@H]1C(=O)N[C@@H](CC(=O)N(C)C)C(=O)N[C@@H]([C@@H](C)O)C(=O)N[C@@H](Cc2c[nH]c3c(C)cccc23)C(=O)N[C@@H](CCCCN(C)C(C)=O)C(=O)N[C@H](C(=O)N[C@@H](Cc2ccc(OCCCCC[N+](C)(C)C)cc2)C(=O)N[C@@H](Cc2ccc3ccccc3c2)C(=O)NC2(C(=O)N[C@@H](CCCCN(C)C(C)=O)C(=O)N[C@@H](CC(N)=O)C(=O)N[C@@H](Cc3cccnc3)C(=O)N(C)CC(=O)N(C)C)CCOCC2)C(C)(C)SSC1(C)C [compound 190, MeCO-Pen(3)-N(N(Me)2)-T-7MeW-K(NMeAc)-Pen(3)-TMAPF-2Nal-THP-K(NMeAc)-N-3Pya-Sar-CON(Me)2] (Ac-[Pen]D(NMe2)T[Trp(7-Me)][Lys(Me)](Ac)[Pen]Y(X3)[2Nal][Thp][Lys(Me)](Ac)N[3Pal][Sar]-NMe2; disulfide 1-6 (inferred))	137
CC(=O)N(C)CCCC[C@H](NC(=O)C1(NC(=O)[C@H](Cc2ccc3ccccc3c2)NC(=O)[C@H](Cc2ccc(OCCN)cc2)NC(=O)[C@H]2NC(=O)[C@H](CCC(=O)N(C)C)NC(=O)[C@H](Cc3c[nH]c4c(C)cccc34)NC(=O)[C@H]([C@@H](C)O)NC(=O)[C@H](CC(N)=O)NC(=O)[C@@H](NC(=O)CCOCCOCC[N+](C)(C)C)C(C)(C)SSC2(C)C)CCOCC1)C(=O)N[C@@H](CC(N)=O)C(=O)N[C@@H](Cc1cccnc1)C(=O)N(C)CC(N)=O [compound 168, cPEG3aCO-Pen(3)-N-T-7MeW-Q(N(Me)2)-Pen(3)-AEF-2Nal-THP-K(NMeAc)-N-3Pya-Sar-CONH2] ({Me3N+(CH2)2O(CH2)2O(CH2)2CO}-[Pen]NT[Trp(7-Me)]E(NMe2)[Pen][AEF][2Nal][Thp][Lys(Me)](Ac)N[3Pal][Sar]-NH2; disulfide 1-6)	154
CC(=O)N(C)CCCC[C@@H]1NC(=O)[C@H](Cc2c[nH]c3c(C)cccc23)NC(=O)[C@H]([C@@H](C)O)NC(=O)[C@H](CC(=O)N(C)C)NC(=O)[C@@H](NC(=O)CCOCCOCC[N+](C)(C)C)C(C)(C)SSC(C)(C)[C@@H](C(=O)N[C@@H](Cc2ccc(OCCN(CCOCC[N+](C)(C)C)CCOCC[N+](C)(C)C)cc2)C(=O)N[C@@H](Cc2ccc3ccccc3c2)C(=O)NC2(C(=O)N[C@@H](CCCCN(C)C(C)=O)C(=O)N[C@@H](CC(N)=O)C(=O)N[C@@H](Cc3cccnc3)C(=O)N(C)CC(=O)N(C)C)CCOCC2)NC1=O (relative stereo) [compound 266, cPEG3aCO-Pen(3)-N(N(Me)2)-T-7MeW-K(NMeAc)-Pen(3)-AEF(BisPEG2a)(S*)-2Nal-THP-K(NMeAc)-N-3Pya-Sar-CON(Me)2]	157

Continued, values first:

EPSA [A^2]	Compound
192	CC(=O)NCCCC[C@@H]1NC(=O)[C@H](Cc2c[nH]c3ccccc23)NC(=O)[C@H]([C@@H](C)O)NC(=O)[C@H](CC(N)=O)NC(=O)[C@@H](NC(=O)[C@@H](CCCNC(=N)N)NC(C)=O)C(C)(C)SSC(C)(C)[C@@H](C(=O)N[C@@H](Cc2ccc(OCC[N+]3(C)CCOCC3)cc2)C(=O)N[C@@H](Cc2ccc3ccccc3c2)C(=O)NC2(C(=O)N[C@@H](CCC(=O)O)C(=O)N[C@@H](CC(N)=O)C(=O)N[C@@H](Cc3cccnc3)C(=O)N(C)CC(N)=O)CCOCC2)NC1=O [compound 429] (Ac-[dR][Pen]NTWK(Ac)[Pen]Y(X17)[2Nal][Thp]EN[3Pal][Sar]-NH2; disulfide 2-7)
163	CC(=O)NCCCC[C@@H]1NC(=O)[C@H](Cc2c[nH]c3c(C)cccc23)NC(=O)[C@H]([C@@H](C)O)NC(=O)[C@H](CC(N)=O)NC(=O)[C@@H](NC(C)=O)C(C)(C)SSC(C)(C)[C@@H](C(=O)N[C@@H](Cc2ccc(OCCCCCCCC[N+](C)(C)C)cc2)C(=O)N[C@@H](Cc2ccc3ccccc3c2)C(=O)NC2(C(=O)N[C@@H](CCC(=O)O)C(=O)N[C@@H](CC(N)=O)C(=O)N[C@@H](Cc3cccnc3)C(=O)N(C)CC(N)=O)CCOCC2)NC1=O [compound 457] (Ac-[Pen]NT[Trp(7-Me)]K(Ac)[Pen]Y(X8)[2Nal][Thp]EN[3Pal][Sar]-NH2; disulfide 1-6 (inferred))
160	CC(=O)N(C)CCCC[C@@H]1NC(=O)[C@H](Cc2c[nH]c3c(C)cccc23)NC(=O)[C@H]([C@@H](C)O)NC(=O)[C@H](CC(C)C)NC(=O)[C@@H](NC(=O)CCOCCOCC[N+](C)(C)C)C(C)(C)SSC(C)(C)[C@@H](C(=O)N[C@@H](Cc2ccc(OCCCCC[N+](C)(C)C)cc2)C(=O)N[C@@H](Cc2ccc3ccccc3c2)C(=O)NC2(C(=O)N[C@@H](CCCCN(C)C(C)=O)C(=O)N[C@@H](CC(N)=O)C(=O)N[C@@H](Cc3cccnc3)C(=O)N(C)CC(=O)N(C)C)CCOCC2)NC1=O [compound 495, cPEG3aCO-Pen(3)-1-T-7MeW-K(NMeAc)-Pen(3)-TMAPF-2Nal-THP-K(NMeAc)-N-3Pya-Sar-CON(Me)2] ({Me3N+(CH2)2O(CH2)2O(CH2)2CO}-[Pen]LT[Trp(7-Me)][Lys(Me)](Ac)[Pen]Y(X3)[2Nal][Thp][Lys(Me)](Ac)N[3Pal][Sar]-NMe2; disulfide 1-6)
164	CC(=O)NCCCC[C@@H]1NC(=O)[C@H](Cc2c[nH]c3c(C)cccc23)NC(=O)[C@H]([C@@H](C)O)NC(=O)[C@H](CC(N)=O)NC(=O)[C@H](NC(C)=O)CSSC[C@@](C)(C(=O)N[C@@H](Cc2ccc(OCCCCC[N+](C)(C)C)cc2)C(=O)N[C@@H](Cc2ccc3ccccc3c2)C(=O)NC2(C(=O)N[C@@H](CCCCNC(C)=O)C(=O)N[C@@H](CC(N)=O)C(=O)N[C@@H](Cc3cccnc3)C(=O)N(C)CC(N)=O)CCOCC2)NC1=O [compound 478, MeCO-C(3)-N-T-7MeW-K(Ac)-aMeC(3)-TMAPF-2Nal-THP-K(Ac)-N-3Pya-Sar-CONH2]
161	CCCCCCCCCCCCCC(=O)N[C@@H](CCC(=O)NCCOCCOCC(=O)NCCOCCOCC(=O)NCCCC[C@@H]1NC(=O)[C@@H](NC(=O)CCOCCOCC[N+](C)(C)C)C(C)(C)SSC(C)(C)[C@@H](C(=O)N[C@@H](Cc2ccc(OCCCCC[N+](C)(C)C)cc2)C(=O)N[C@@H](Cc2ccc3ccccc3c2)C(=O)NC2(C(=O)N[C@@H](CCCCN(C)C(C)=O)C(=O)N[C@@H](CC(N)=O)C(=O)N[C@@H](Cc3cccnc3)C(=O)N(C)CC(=O)N(C)C)CCOCC2)NC(=O)[C@H](CCCCN(C)C(C)=O)NC(=O)[C@H](Cc2c[nH]c3c(C)cccc23)NC(=O)[C@H]([C@@H](C)O)NC1=O)C(=O)O [compound 388, cPEG3aCO-Pen(3)-K(PEG2PEG2gEC14)-T-7MeW-K(NMeAc)-Pen(3)-TMAPF-2Nal-THP-K(NMeAc)-N-3Pya-Sar-CON(Me)2] ({Me3N+(CH2)2O(CH2)2O(CH2)2CO}-[Pen]K([AEEA-AEEA-γGlu-Myristoyl])T[Trp(7-Me)][Lys(Me)](Ac)[Pen]Y(X3)[2Nal][Thp][Lys(Me)](Ac)N[3Pal][Sar]-NMe2; disulfide 1-6)
